The source made the active and inactive calls. No cut-off for these calls is given here.
Legend:
[1] = target: Serine/threonine-protein kinase Sgk1 (Homo sapiens) (UniProt O00141); experiment: Inhibition of truncated human N-terminal GST-tagged SGK (61 to 431 end residues) expressed in baculovirus expression system using SGKtide as substrate at 10 uM by mobility shift assay relative to control
[2] = target: Fibroblast growth factor receptor 1 (Homo sapiens) (UniProt P11362); experiment: Inhibition of human cytoplasmic domain N-terminal GST tagged FGFR1 (398 to 822 end residues) expressed in baculovirus expression system using CSKtide as substrate at 10 uM by mobility shift assay relative to control
[3] = target: Histone-lysine N-methyltransferase SETD7 (Homo sapiens, UniProt Q8WTS6); experiment: Inhibition of SETD7 (unknown origin) using [3H-SAM] as substrate incubated for 1 hr by scintillation proximity assay
Chain of Histone-lysine N-methyltransferase SETD7 (Q8WTS6 whole entry, the tested form may be a part): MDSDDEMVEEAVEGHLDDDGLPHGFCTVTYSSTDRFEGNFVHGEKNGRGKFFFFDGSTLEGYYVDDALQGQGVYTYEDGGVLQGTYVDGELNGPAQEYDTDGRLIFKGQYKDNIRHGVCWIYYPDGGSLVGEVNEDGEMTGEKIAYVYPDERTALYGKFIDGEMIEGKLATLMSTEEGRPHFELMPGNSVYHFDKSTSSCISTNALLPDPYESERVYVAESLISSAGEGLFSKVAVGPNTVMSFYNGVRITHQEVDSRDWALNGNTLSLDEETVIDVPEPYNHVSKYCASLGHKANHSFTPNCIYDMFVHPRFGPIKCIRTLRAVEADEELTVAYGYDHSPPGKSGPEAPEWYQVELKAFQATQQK

[4] = target: High affinity nerve growth factor receptor (Homo sapiens) (UniProt P04629); experiment: Inhibition of human cytoplasmic domain N-terminal GST tagged TRKA (436 to 790 end residues) expressed in baculovirus expression system using CSKtide as substrate at 10 uM by mobility shift assay relative to control
Chain of High affinity nerve growth factor receptor (Homo sapiens) (P04629 33-796 limits assumed): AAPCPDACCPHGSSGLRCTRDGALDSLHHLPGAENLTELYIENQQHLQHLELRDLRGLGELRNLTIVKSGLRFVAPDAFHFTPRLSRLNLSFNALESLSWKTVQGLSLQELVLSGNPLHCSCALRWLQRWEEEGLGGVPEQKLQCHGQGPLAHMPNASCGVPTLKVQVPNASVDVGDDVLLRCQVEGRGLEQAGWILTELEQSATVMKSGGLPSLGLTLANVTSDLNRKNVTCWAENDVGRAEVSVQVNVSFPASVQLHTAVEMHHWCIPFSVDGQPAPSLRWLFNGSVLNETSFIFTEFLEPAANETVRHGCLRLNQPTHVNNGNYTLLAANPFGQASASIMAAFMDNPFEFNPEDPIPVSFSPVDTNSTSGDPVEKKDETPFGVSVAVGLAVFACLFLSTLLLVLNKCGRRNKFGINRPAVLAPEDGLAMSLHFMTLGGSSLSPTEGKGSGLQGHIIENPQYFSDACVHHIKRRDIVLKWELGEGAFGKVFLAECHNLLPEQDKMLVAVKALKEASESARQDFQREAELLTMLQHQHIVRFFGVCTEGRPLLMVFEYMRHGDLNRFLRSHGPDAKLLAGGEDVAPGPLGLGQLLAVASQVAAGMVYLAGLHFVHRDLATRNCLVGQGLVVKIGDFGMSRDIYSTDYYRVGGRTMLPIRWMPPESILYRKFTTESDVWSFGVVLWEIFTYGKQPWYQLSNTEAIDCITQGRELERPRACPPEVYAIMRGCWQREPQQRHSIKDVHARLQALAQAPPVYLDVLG

[5] = target: Muscarinic acetylcholine receptor M3 (Homo sapiens) (UniProt P20309); experiment: Inhibition of M3 receptor (unknown origin) at 10 uM by radioligand binding assay relative to control
Chain of Muscarinic acetylcholine receptor M3 (Homo sapiens) (P20309 whole entry, looked up, the tested form may be a part): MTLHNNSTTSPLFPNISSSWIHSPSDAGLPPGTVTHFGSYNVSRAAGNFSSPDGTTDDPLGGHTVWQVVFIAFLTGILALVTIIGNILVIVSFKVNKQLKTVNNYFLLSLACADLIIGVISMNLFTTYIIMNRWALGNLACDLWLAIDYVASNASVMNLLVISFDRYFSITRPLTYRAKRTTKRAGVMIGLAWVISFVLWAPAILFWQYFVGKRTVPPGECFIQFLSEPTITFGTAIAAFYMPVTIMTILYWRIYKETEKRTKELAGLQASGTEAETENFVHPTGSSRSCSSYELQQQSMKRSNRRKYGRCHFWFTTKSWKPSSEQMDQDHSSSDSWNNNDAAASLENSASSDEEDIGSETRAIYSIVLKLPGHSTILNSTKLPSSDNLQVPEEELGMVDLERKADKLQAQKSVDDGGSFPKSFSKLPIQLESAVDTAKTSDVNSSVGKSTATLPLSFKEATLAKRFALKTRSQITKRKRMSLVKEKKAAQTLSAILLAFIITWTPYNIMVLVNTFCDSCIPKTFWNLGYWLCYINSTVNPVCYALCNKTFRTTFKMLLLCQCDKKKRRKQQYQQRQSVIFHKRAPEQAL

[6] = target: CDK2/Cyclin A2 (Homo sapiens) (UniProt P24941+P20248); experiment: Inhibition of full length human N-terminal GST tagged CDK2 (1 to 298 residues)/GST tagged CycA2 (1 to 432 end residues) expressed in baculovirus expression system using histone H1 as substrate at 10 uM by mobility shift assay relative to control
[7] = target: 5-hydroxytryptamine receptor 1A (Homo sapiens) (UniProt P08908); experiment: Inhibition of 5-HT1A receptor (unknown origin) at 10 uM by radioligand binding assay relative to control
Chain of 5-hydroxytryptamine receptor 1A (Homo sapiens) (P08908 whole entry): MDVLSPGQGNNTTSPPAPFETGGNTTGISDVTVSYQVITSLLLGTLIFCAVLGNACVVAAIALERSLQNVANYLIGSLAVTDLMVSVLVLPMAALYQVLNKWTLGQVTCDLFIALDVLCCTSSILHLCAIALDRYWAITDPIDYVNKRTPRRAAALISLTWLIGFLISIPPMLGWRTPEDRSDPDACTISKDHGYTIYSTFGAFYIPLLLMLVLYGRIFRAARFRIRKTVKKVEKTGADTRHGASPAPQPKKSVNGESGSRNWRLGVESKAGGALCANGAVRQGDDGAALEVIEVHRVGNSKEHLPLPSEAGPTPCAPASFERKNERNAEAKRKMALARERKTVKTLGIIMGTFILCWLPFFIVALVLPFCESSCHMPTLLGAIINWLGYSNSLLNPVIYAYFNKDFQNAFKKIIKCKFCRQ

[8] = target: Serine/threonine-protein kinase Nek2 (Homo sapiens) (UniProt P51955); experiment: Inhibition of full length human N-terminal his-tagged NEK2 (1 to 445 end residues) expressed in baculovirus expression system using CDK7 peptide as substrate at 10 uM by mobility shift assay relative to control
Chain of Serine/threonine-protein kinase Nek2 (Homo sapiens) (P51955 whole entry): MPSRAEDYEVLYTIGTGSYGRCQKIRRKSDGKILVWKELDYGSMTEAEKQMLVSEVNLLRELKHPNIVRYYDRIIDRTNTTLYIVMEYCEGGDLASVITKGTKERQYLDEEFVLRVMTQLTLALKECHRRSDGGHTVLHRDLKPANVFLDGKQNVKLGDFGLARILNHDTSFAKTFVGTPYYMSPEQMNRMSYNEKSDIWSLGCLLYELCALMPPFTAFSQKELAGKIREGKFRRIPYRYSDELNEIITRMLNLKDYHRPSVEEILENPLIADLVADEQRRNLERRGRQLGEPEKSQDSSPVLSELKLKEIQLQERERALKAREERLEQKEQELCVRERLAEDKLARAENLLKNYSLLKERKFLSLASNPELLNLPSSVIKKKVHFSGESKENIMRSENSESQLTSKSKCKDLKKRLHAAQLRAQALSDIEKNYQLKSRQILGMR

DB [9] = experiment: Antiproliferative activity against human DB cells assessed as reduction in cell viability at 5000 nM by cell proliferation assay relative to control; format: functional
[10] = target: D(1A) dopamine receptor (Homo sapiens) (UniProt P21728); experiment: Inhibition of dopamine D1 receptor (unknown origin) at 10 uM by radioligand binding assay relative to control
[11] = target: T1, Histone-lysine N-methyltransferase EZH2 (Homo sapiens, UniProt Q15910)
T1 sequence (Q15910 whole entry): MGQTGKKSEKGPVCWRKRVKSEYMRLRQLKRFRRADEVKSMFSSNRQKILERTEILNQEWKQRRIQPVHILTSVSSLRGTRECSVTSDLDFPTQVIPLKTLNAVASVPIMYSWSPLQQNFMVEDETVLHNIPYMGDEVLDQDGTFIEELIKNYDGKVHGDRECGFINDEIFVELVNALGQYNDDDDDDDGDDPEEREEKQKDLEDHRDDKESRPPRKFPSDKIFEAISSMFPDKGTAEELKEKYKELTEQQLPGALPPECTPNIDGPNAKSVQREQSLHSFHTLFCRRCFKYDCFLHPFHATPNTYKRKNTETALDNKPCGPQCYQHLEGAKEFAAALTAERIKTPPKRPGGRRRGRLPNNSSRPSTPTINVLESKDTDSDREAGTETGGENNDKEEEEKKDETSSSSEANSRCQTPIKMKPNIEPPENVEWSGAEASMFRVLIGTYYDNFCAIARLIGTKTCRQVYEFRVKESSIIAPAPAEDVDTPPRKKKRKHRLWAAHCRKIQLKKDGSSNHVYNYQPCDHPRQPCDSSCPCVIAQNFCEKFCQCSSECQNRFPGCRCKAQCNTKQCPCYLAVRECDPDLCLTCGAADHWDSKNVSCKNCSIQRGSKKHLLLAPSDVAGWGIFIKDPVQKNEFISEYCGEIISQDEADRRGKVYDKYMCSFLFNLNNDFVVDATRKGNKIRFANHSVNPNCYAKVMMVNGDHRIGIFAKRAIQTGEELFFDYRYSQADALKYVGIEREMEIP
Description: Inhibition of human EZH2 in human MCF-10A cells assessed as reduction in H3K27me3 levels incubated for 72 hrs by In-cell western assay

[12] = target: T1, Histone-lysine N-methyltransferase EZH2; remark: listed apart in the source
Description: Competitive inhibition of EZH2 methyltransferase activity (unknown origin) in PRC2 complex assessed as inhibition constant in presence of cofactor SAM by Lineweaver-Burk plot analysis

[13] = target: Serotonin 3 (5-HT3) receptor (Homo sapiens) (UniProt P46098+A5X5Y0+O95264+Q70Z44+Q8WXA8); experiment: Inhibition of 5-HT3 receptor (unknown origin) at 10 uM by radioligand binding assay relative to control; format: protein-complex assay
Homo sapiens = organism: Homo sapiens; experiment: Inhibition of BZP (unknown origin) at 10 uM by radioligand binding assay relative to control
[14] = target: Rho-associated protein kinase 1 (Homo sapiens) (UniProt Q13464); experiment: Inhibition of human catalytic domain N-terminal GST tagged ROCK1 (1 to 477 residues) expressed in baculovirus expression system using LIMKtide as substrate at 10 uM by mobility shift assay relative to control
[15] = target: Platelet-derived growth factor receptor alpha (Homo sapiens) (UniProt P16234); experiment: Inhibition of human cytoplasmic domain N-terminal GST tagged PDGFR alpha (550 to 1089 residues) expressed in baculovirus expression system using CSKtide as substrate at 10 uM by mobility shift assay relative to control
[16] = target: Muscarinic acetylcholine receptor M5 (Homo sapiens) (UniProt P08912); experiment: Inhibition of M5 receptor (unknown origin) at 10 uM by radioligand binding assay relative to control
Chain of Muscarinic acetylcholine receptor M5 (Homo sapiens) (P08912 whole entry): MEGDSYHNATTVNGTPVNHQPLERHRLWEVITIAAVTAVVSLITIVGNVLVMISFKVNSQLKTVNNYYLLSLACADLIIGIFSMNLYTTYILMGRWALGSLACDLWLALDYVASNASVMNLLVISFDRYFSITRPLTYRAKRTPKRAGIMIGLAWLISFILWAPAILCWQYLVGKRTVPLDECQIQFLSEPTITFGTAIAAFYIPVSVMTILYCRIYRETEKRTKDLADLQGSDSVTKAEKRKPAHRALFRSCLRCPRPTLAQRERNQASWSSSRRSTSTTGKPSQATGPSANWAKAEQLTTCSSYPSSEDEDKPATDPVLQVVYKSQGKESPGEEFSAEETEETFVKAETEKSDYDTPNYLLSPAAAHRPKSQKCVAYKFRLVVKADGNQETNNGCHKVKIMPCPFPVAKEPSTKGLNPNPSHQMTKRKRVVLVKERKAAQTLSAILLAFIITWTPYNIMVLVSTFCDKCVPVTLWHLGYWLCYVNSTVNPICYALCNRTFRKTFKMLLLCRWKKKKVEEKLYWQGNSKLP

[17] = target: Delta-type opioid receptor (Homo sapiens) (UniProt P41143); experiment: Inhibition of DOR (unknown origin) at 10 uM by radioligand binding assay relative to control
[18] = target: Histone-lysine N-methyltransferase SETDB1 (Homo sapiens, UniProt Q15047); experiment: Inhibition of SETDB1 (unknown origin) using [3H-SAM] as substrate incubated for 1 hr by scintillation proximity assay
[19] = target: Serine/threonine-protein kinase D2 (Homo sapiens) (UniProt Q9BZL6); experiment: Inhibition of full length human N-terminal GST tagged PKD2 (1 to 878 end residues) expressed in baculovirus expression system using GS as peptide at 10 uM by mobility shift assay relative to control
Chain of Serine/threonine-protein kinase D2 (Homo sapiens) (Q9BZL6 whole entry, the tested form may be a part): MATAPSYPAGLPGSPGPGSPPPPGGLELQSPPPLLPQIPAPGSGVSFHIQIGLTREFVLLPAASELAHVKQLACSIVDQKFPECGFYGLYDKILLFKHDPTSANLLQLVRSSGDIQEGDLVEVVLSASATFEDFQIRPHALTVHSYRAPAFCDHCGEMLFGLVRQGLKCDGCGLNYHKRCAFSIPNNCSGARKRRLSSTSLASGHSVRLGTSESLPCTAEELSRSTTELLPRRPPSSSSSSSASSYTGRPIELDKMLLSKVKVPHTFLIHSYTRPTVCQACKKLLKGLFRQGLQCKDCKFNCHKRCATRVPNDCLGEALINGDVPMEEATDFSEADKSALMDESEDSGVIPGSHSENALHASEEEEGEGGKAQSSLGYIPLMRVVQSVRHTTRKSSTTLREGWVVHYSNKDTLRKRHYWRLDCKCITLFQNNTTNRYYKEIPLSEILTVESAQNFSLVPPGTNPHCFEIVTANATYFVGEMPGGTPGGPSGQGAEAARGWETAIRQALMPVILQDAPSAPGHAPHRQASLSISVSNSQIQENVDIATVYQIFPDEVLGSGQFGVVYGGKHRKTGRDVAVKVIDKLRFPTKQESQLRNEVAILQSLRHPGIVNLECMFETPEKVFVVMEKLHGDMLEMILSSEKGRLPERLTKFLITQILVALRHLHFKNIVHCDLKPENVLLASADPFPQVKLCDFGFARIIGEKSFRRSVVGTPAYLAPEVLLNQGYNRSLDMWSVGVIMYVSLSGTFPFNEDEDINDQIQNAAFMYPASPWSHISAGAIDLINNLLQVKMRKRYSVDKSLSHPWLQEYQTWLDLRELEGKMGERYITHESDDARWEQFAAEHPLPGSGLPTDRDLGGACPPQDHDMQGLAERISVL

[20] = target: Hepatocyte growth factor receptor (Homo sapiens) (UniProt P08581); experiment: Inhibition of human cytoplasmic domain N-terminal GST tagged MET (956 to 1390 end residues) expressed in baculovirus expression system using Srctide as substrate at 10 uM by mobility shift assay relative to control
[21] = target: Mitogen-activated protein kinase 1 (Homo sapiens) (UniProt P28482); experiment: Inhibition of full length human N-terminal GST tagged Erk2 (1 to 360 end residues) expressed in Escherichia coli expression system using modified Erktide as substrate at 10 uM by mobility shift assay relative to control
[22] = target: T1, Histone-lysine N-methyltransferase EZH2; experiment: Inhibition of EZH2 methyltransferase activity (unknown origin) in PRC2 complex using 3H-SAM as substrate by Scintillation proximity assay
[23] = target: Proto-oncogene tyrosine-protein kinase Src (Homo sapiens) (UniProt P12931); experiment: Inhibition of full length human N-terminal GST tagged SRC (1 to 536 end residues) expressed in baculovirus expression system using Srctide as substrate at 10 uM by mobility shift assay relative to control
[24] = target: Insulin-like growth factor 1 receptor (Homo sapiens) (UniProt P08069); experiment: Inhibition of human cytoplasmic domain N-terminal GST tagged IGF1R (959 to 1367 end residues) expressed in baculovirus expression system using IRS1 as substrate at 10 uM by mobility shift assay relative to control
DB [25] = experiment: Downregulation of H3K27me3 level in human DB cells at 3000 nM measured after 3 days; format: functional, cell-based; conditions: time 3.0 day
[26] = Inhibition of human catalytic domain N-terminal GST tagged p70S6K (1 to 421 residues) expressed in baculovirus expression system using S6K2 peptide as substrate at 10 uM by mobility shift assay relative to control; conditions: condition weaver syndrome
[27] = target: Histone-lysine N-methyltransferase SUV39H2 (Homo sapiens, UniProt Q9H5I1); experiment: Inhibition of SUV39H2 (unknown origin) using [3H-SAM] as substrate incubated for 1 hr by scintillation proximity assay
[28] = target: D(4) dopamine receptor (Homo sapiens) (UniProt P21917); experiment: Inhibition of dopamine D4 receptor (unknown origin) at 10 uM by radioligand binding assay relative to control
[29] = target: Beta-3 adrenergic receptor (Homo sapiens) (UniProt P13945); experiment: Inhibition of Beta3receptor (unknown origin) at 10 uM by radioligand binding assay relative to control

CCCc1cc(C)[nH]c(=O)c1CNC(=O)c1cc(-c2ccc(N3CCN(C(C)C)CC3)nc2)cc2c1cnn2C(C)C
inhibition [1]: -3% | inhibition [2]: -9% | IC50 [3]: > 100 µM | inhibition [4]: 7% | inhibition [5]: 10% | inhibition [6]: -3% | inhibition [7]: 11% | inhibition [8]: -4% | Activity (DB [9]): 100% | inhibition [10]: 13% | IC50 [11]: 124 nM | Ki [12]: 4.6 nM | inhibition [13]: 12% | inhibition (Homo sapiens): -6% | inhibition [14]: 5% | inhibition [15]: -5% | inhibition [16]: 9% | inhibition [17]: 21% | IC50 [18]: > 100 µM | inhibition [19]: 5% | inhibition [20]: -3% | inhibition [21]: 3% | IC50 [22]: < 10 nM | inhibition [23]: -1% | inhibition [24]: -7% | Activity (DB [25]): Active | inhibition at 10 µM [26]: 6% | IC50 [27]: > 100 µM | inhibition [28]: 2% | inhibition [29]: 10%

Reference: ChEMBL document CHEMBL5705896 (ACS Chem Biol, 2013)
